Source: the NIST ThermoML archive (doi:10.1021/je049776w)

Assay: xn = mol fraction of the nth substance listed
Settings: 101.3 kPa, Liquid

Cc1ccc(C)cc1 [1,4-dimethylbenzene] + CN1CCCC1=O
Settings	mass density [kg/m3]	viscosity [mPa·s]
303.15 K, x1 = 0.0947	1005.71	1.359
303.15 K, x1 = 0.1893	988.37	1.239
303.15 K, x1 = 0.2858	971.07	1.129
303.15 K, x1 = 0.3838	953.82	1.02
303.15 K, x1 = 0.483	936.56	0.9203
303.15 K, x1 = 0.5836	919.47	0.8327
303.15 K, x1 = 0.6854	902.73	0.7753
303.15 K, x1 = 0.7888	885.85	0.7001
303.15 K, x1 = 0.8937	869.04	0.6291
303.15 K, x1 = 1	852.35	0.5715
313.15 K, x1 = 0.0947	996.79	1.173
313.15 K, x1 = 0.1893	979.45	1.07
313.15 K, x1 = 0.2858	962.14	0.9754
313.15 K, x1 = 0.3838	944.9	0.8894
313.15 K, x1 = 0.483	927.68	0.807
313.15 K, x1 = 0.5836	910.56	0.7296
313.15 K, x1 = 0.6854	893.86	0.6862
313.15 K, x1 = 0.7888	877.02	0.619
313.15 K, x1 = 0.8937	860.27	0.5579
313.15 K, x1 = 1	843.64	0.508
323.15 K, x1 = 0.0947	987.88	1.023
323.15 K, x1 = 0.1893	970.53	0.9373
323.15 K, x1 = 0.2858	953.21	0.8571
323.15 K, x1 = 0.3838	935.97	0.7795
323.15 K, x1 = 0.483	918.77	0.7084
323.15 K, x1 = 0.5836	901.68	0.6521
323.15 K, x1 = 0.6854	884.99	0.6084
323.15 K, x1 = 0.7888	868.16	0.5517
323.15 K, x1 = 0.8937	851.46	0.4998
323.15 K, x1 = 1	834.9	0.4599
333.15 K, x1 = 0.0947	978.93	0.9019
333.15 K, x1 = 0.1893	961.55	0.8316
333.15 K, x1 = 0.2858	944.23	0.7602
333.15 K, x1 = 0.3838	926.99	0.694
333.15 K, x1 = 0.483	909.8	0.6321
333.15 K, x1 = 0.5836	892.71	0.5828
333.15 K, x1 = 0.6854	876.03	0.5437
333.15 K, x1 = 0.7888	859.21	0.4947
333.15 K, x1 = 0.8937	842.56	0.4504
333.15 K, x1 = 1	826.09	0.4298
343.15 K, x1 = 0.0947	969.95	0.8009
343.15 K, x1 = 0.1893	952.56	0.7371
343.15 K, x1 = 0.2858	935.23	0.681
343.15 K, x1 = 0.3838	917.98	0.6209
343.15 K, x1 = 0.483	900.82	0.5686
343.15 K, x1 = 0.5836	883.72	0.5173
343.15 K, x1 = 0.6854	867.04	0.4921
343.15 K, x1 = 0.7888	850.22	0.4476
343.15 K, x1 = 0.8937	833.61	0.4081
343.15 K, x1 = 1	817.17	0.3783
353.15 K, x1 = 0.0947	960.94	0.7219
353.15 K, x1 = 0.1893	943.54	0.6637
353.15 K, x1 = 0.2858	926.19	0.6119
353.15 K, x1 = 0.3838	908.93	0.561
353.15 K, x1 = 0.483	891.78	0.5127
353.15 K, x1 = 0.5836	874.66	0.4761
353.15 K, x1 = 0.6854	857.97	0.4466
353.15 K, x1 = 0.7888	841.16	0.4072
353.15 K, x1 = 0.8937	824.56	0.3726
353.15 K, x1 = 1	808.22	0.3382
